The test system of the first series is Pyricularia grisea.
Test: not given
The note with it: 500 ppm; rice plants sprayed 24 hours before contamination; grading 6 days after contamination. The format is in vivo.
Turning to `CCC(COC)Nc1cc(-c2ccnc(Nc3ccnc(Cl)c3)n2)ccn1` (stereo not shown) [Compound 9, N-(2-chloropyridin-4-yl)-4-(2-{[1-(methoxymethyl)propyl]amino}pyridin-4-yl)pyrimidin-2-amine], the “protection (good, at least 70%, or total), % of efficacy” value is “at least 70%”.

System in the next series: not listed separately
The series is described as follows: log P by reversed-phase HPLC (EEC Directive 79/831 Annex V.A8). The series is classed as physicochemical. As to conditions: reversed-phase C 18, 40° C., 0.1% aqueous formic acid and acetonitrile gradient. On the procedure: Temperature: 40° C.; Mobile phases: 0.1% aqueous formic acid and acetonitrile; linear gradient from 10% acetonitrile to 90% acetonitrile.
Take `COc1ccc(Nc2nccc(-c3ccnc(N(C)C)c3)n2)cn1` [Compound 1]: the “log PHCOOH” value was determined as 1.24. With `CCC(CO)Nc1cc(-c2ccnc(Nc3ccc(OC)nc3)n2)ccn1` (stereo not shown) [Compound 2], the “log PHCOOH” value was 1.35.

Turning to `c1cc(Nc2nccc(-c3ccnc(NC4CCC4)c3)n2)nc(NC2CCC2)c1` [Compound 3], the “log PHCOOH” value stood at 1.12.

For `c1cc(Nc2nccc(-c3ccnc(NC4CCCCC4)c3)n2)nc(NC2CCCCC2)c1` [Compound 4], the “log PHCOOH” value was 1.70. On the same count and under the same terms, with `c1cc(Nc2nccc(-c3ccnc(NCC4CC4)c3)n2)cc(NCC2CC2)n1` [Compound 5] the figure was 0.97; with `COCCCNc1cc(-c2ccnc(Nc3cccc(NCCCOC)n3)n2)ccn1` [Compound 6], 0.83; with `c1cc(NCC2CCCO2)nc(Nc2nccc(-c3ccnc(NCC4CCCO4)c3)n2)c1` (stereo not shown) [Compound 7], 0.86. The same measure, in the same setting: with `Clc1cc(Nc2nccc(-c3ccnc(NC4CCCCC4)c3)n2)ccn1` [Compound 8] the figure was 1.64; with `CC(C)C(C)Nc1cc(-c2ccnc(Nc3ccnc(Cl)c3)n2)ccn1` (stereo not shown) [Compound 10], 1.66; with `Clc1cc(Nc2nccc(-c3ccnc(NC4CCC4)c3)n2)ccn1` [Compound 11], 1.45. Consider `CCCC(C)Nc1cc(-c2ccnc(Nc3ccnc(Cl)c3)n2)ccn1` (stereo not shown) [Compound 12], for which the “log PHCOOH” value is recorded as 1.72. Still for that read-out and setting: with `CCC(CC)Nc1cc(-c2ccnc(Nc3ccnc(Cl)c3)n2)ccn1` [Compound 13] the figure was 1.64; with `Clc1cc(Nc2nccc(-c3ccnc(NC4CCCC4)c3)n2)ccn1` [Compound 14], 1.58; with `c1cc(Nc2nccc(-c3ccnc(NC4CCCCC4)c3)n2)cc(NC2CCCCC2)n1` [Compound 15], 1.52.

Take `c1cc(NCC2CC2)nc(Nc2nccc(-c3ccnc(NCC4CC4)c3)n2)c1` [Compound 16]: the “log PHCOOH” value is reported as 0.96. Still for that read-out and setting: with `CCCCCNc1cc(Nc2nccc(-c3ccnc(NCCCCC)c3)n2)ccn1` [Compound 17] the figure was 1.57; with `CC(C)C(C)Nc1cc(Nc2nccc(-c3ccnc(NC(C)C(C)C)c3)n2)ccn1` (stereo not shown) [Compound 18], 1.34; with `c1cc(Nc2nccc(-c3ccnc(NC4CCC4)c3)n2)cc(NC2CCC2)n1` [Compound 19], 1.05. Still for that read-out and setting: with `CCCC(C)Nc1cc(Nc2nccc(-c3ccnc(NC(C)CCC)c3)n2)ccn1` (stereo not shown) [Compound 20] the figure was 1.43; with `CCC(CC)Nc1cc(Nc2nccc(-c3ccnc(NC(CC)CC)c3)n2)ccn1` [Compound 21], 1.33; with `c1cc(Nc2nccc(-c3ccnc(NC4CCCC4)c3)n2)cc(NC2CCCC2)n1` [Compound 22], 1.22. Still for that read-out and setting: with `CCC(C)Nc1cc(Nc2nccc(-c3ccnc(NC(C)CC)c3)n2)ccn1` (stereo not shown) [Compound 23] the figure was 1.10; with `CCC(CC)Nc1cc(-c2ccnc(Nc3cccc(Cl)n3)n2)ccn1` [Compound 24], 2.09; with `CCC(C)Nc1cc(-c2ccnc(Nc3cccc(Cl)n3)n2)ccn1` (stereo not shown) [Compound 25], 2.00.

`CC(C)C(C)Nc1cc(-c2ccnc(Nc3cccc(Cl)n3)n2)ccn1` (stereo not shown) [Compound 26]: the “log PHCOOH” value is reported as 2.15. In the case of `Clc1cccc(Nc2nccc(-c3ccnc(NCC4CCCO4)c3)n2)n1` (stereo not shown) [Compound 27], the “log PHCOOH” value was determined as 1.64.

Consider `CC(CN(C)C)Nc1cc(-c2ccnc(Nc3cccc(Cl)n3)n2)ccn1` (stereo not shown) [Compound 28], for which the “log PHCOOH” value worked out at 1.42.

As for `CCC(COC)Nc1cc(-c2ccnc(Nc3cccc(Cl)n3)n2)ccn1` (stereo not shown) [Compound 29], the “log PHCOOH” value was found to be 1.85.

For `CCC(CC)Nc1cc(-c2ccnc(Nc3cccc(NC(CC)CC)n3)n2)ccn1` [Compound 30], the “log PHCOOH” value was found to be 1.47. On the same count and under the same terms, then `c1cc(Nc2nccc(-c3ccnc(NC4CCCC4)c3)n2)nc(NC2CCCC2)c1` [Compound 31], with 1.23; and `CCC(C)Nc1cc(-c2ccnc(Nc3cccc(NC(C)CC)n3)n2)ccn1` (stereo not shown) [Compound 32], with 1.23; and `CC(C)C(C)Nc1cc(-c2ccnc(Nc3cccc(NC(C)C(C)C)n3)n2)ccn1` (stereo not shown) [Compound 33], with 1.43. With `CCC(COC)Nc1cc(Nc2nccc(-c3ccnc(NC(CC)COC)c3)n2)ccn1` (stereo not shown) [Compound 34], the “log PHCOOH” value is 1.10. Still for that read-out and setting: then `COCC(C)Nc1cc(-c2ccnc(Nc3ccnc(Cl)c3)n2)ccn1` (stereo not shown) [Compound 35], with 1.34; and `COc1ccc(Nc2nccc(-c3ccnc(NC4COC4)c3)n2)cn1` [Compound 36], with 1.10; and `COCC(C)Nc1cc(-c2ccnc(Nc3ccc(OC)nc3)n2)ccn1` (stereo not shown) [Compound 38], with 1.29. Still for that read-out and setting: then `CCC(C)Nc1cc(-c2ccnc(Nc3ccc(OC)nc3)n2)ccn1` (stereo not shown) [Compound 39], with 1.48; and `COc1ccc(Nc2nccc(-c3ccnc(NCC(C)C)c3)n2)cn1` [Compound 46], with 1.42.

The same series, now with this note: reversed-phase C18 HPLC column, reversed-phase C 18, 40° C., 0.1% aqueous formic acid and acetonitrile gradient, read-out: log PHCOOH.
For the molecule `CCC(COC)Nc1cc(-c2ccnc(Nc3ccnc(Cl)c3)n2)ccn1` (stereo not shown) [Compound 9, N-(2-chloropyridin-4-yl)-4-(2-{[1-(methoxymethyl)propyl]amino}pyridin-4-yl)pyrimidin-2-amine], the chromatographic logP was 1.37.

These data come from patent US8273759B2, “Fungicide heterocyclyl-pyrimidinyl-amino derivatives” (Bayer Cropscience AG, priority 2007, dated 2012).
